Several values for one entry are separate records, joined by “and”; a condition that tells them apart may be missing. Equal entries are not always repeated.
How the values were obtained:
hCB1 receptor = hCB1 receptor (Homo sapiens, UniProt P21554); assay: AequoScreen hCB1 receptor assay (flash luminescence, recombinant CHO-K1 cells); conditions: for Emax: CHO-K1, read-out: Efficacy (% JWH-018 activity), Emax, Emax from dose-response curves, normalized to JWH-018 at 20 µg/mL; for Emax / Efficacy (% JWH-018 activity), Emax: triplicates; for EC50: EC50, 8 concentrations 20 µg/mL to 76 or 9.5 ng/mL, normalized to JWH-018 between runs; for Potency retained, % of the potency of the parent: hydroxyindole metabolites versus AM-2201 or JWH-018; for Efficacy (% JWH-018 activity), Emax: Emax from dose-response curves, normalized to JWH-018 at 20 µg/mL
CB1 receptor = conditions: cited from earlier work
[1] = system: serotonin receptor 5-HT2A; parameters: method as in PMID 27779402, PMID 33160102, PMID 21755008; conditions: cited from earlier work

Sequence of hCB1 receptor (P21554 whole entry): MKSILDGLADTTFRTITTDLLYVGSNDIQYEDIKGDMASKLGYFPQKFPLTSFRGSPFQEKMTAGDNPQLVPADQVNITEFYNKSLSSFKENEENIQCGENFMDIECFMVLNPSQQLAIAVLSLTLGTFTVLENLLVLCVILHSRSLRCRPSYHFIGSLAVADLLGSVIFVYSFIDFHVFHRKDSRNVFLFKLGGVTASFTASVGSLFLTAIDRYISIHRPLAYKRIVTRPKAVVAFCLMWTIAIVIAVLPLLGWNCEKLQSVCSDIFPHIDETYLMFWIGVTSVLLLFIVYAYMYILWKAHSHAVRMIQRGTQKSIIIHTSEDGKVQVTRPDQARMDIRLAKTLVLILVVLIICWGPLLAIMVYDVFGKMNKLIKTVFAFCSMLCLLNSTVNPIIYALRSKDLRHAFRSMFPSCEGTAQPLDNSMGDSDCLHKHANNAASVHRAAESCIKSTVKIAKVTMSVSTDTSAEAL

Structure (SMILES)	Emax (hCB1 receptor)	EC50 (hCB1 receptor)	further results
O=C(c1cccc2ccccc12)c1cn(CCC(O)CCF)c2ccccc12 (stereo not drawn) [3-OH pentyl AM-2201]	100%	221 nM	
O=C(O)CCCCn1cc(C(=O)c2cccc3ccccc23)c2ccccc21 [Pentanoic acid JWH-018]	0.23%		hCB1 activity in other in vitro studies, in words (CB1 receptor): inactive
CCCC(O)Cn1cc(C(=O)c2cccc3ccccc23)c2ccccc21 (stereo not drawn) [2-OH pentyl JWH-018]	82%	750 nM	
CCCCCn1cc(C(=O)c2cccc3ccccc23)c2cc(O)ccc21 [5-OH indole JWH-018]	88.9%	1130 nM	Activity on the CB1 receptor in words (CB1 receptor): active; Potency retained, % of the potency of the parent (hCB1 receptor): 4%
CC(O)CCCn1cc(C(=O)c2cccc3ccccc23)c2ccccc21 (stereo not drawn) [4-OH pentyl JWH-018]	105%	288 nM	hCB1 activity in other in vitro studies, in words (CB1 receptor): active metabolites
CCC(O)CCn1nc(C(=O)c2cccc3ccccc23)c2ccccc21 (stereo not drawn) [3-OH pentyl THJ-018]	99.8%	202 nM	
O=C(c1cccc2ccccc12)c1nn(CCCCCO)c2ccccc12 [5-OH pentyl THJ-018]	67.3%	274 nM	
CCCCCn1nc(C(=O)c2cccc3ccccc23)c2ccccc21 [THJ-018, 1-naphthalenyl(1-pentyl-1H-indazol-3-yl)-methanone, reference compound]	96.4%	48.8 nM	Efficacy (% JWH-018 activity), Emax (hCB1 receptor): 96.34 % JWH-018 activity
O=C(c1cccc2ccccc12)c1nn(CCC(O)CCF)c2ccccc12 (stereo not drawn) [3-OH-pentyl THJ-2201]	101%	159 nM	
CC(O)CCCn1nc(C(=O)c2cccc3ccccc23)c2ccccc21 (stereo not drawn) [4-OH pentyl THJ-018]	98.5%	175 nM	
O=C(c1cccc2ccccc12)c1cn(CCCCCF)c2cc(O)ccc12 [6-OH indole AM-2201]	94%	122 nM	Efficacy (% JWH-018 activity), Emax (hCB1 receptor): 94.04 % JWH-018 activity; Potency retained, % of the potency of the parent (hCB1 receptor): over 12%
O=C(c1cccc2ccccc12)c1nn(CCCC(O)CF)c2ccccc12 (stereo not drawn) [4-OH-pentyl THJ-2201]	99.2%	13.7 nM	Potency increase versus the parent SC (hCB1 receptor; metabolite more potent than parent): 2.2 ×
O=C(c1cccc2ccccc12)c1nn(CCCCCF)c2ccccc12 [THJ-2201, [1-(5-fluoropentyl)-1H-indazol-3-yl]-1-naphthalenyl-methanone, reference compound]	92.8%	30.7 nM and 30.6 nM	
O=C(c1cccc2ccccc12)c1cn(CCCCCF)c2cccc(O)c12 [4-OH indole AM-2201]	94.6%	44 nM and 43.7 nM	Potency retained, % of the potency of the parent (hCB1 receptor): 83%
CCCCCn1c(O)c(C(=O)c2cccc3ccccc23)c2ccccc21 [2-OH indole JWH-018]	-0.38%		
O=C(c1cccc2ccccc12)c1nn(CC(O)CCCF)c2ccccc12 (stereo not drawn) [2-OH-pentyl THJ-2201]	87%	403 nM	

Structure (SMILES)	Emax (hCB1 receptor)	EC50 (hCB1 receptor)	further results
O=C(c1cccc2ccccc12)c1cn(CCCCCF)c2ccc(O)cc12 [5-OH indole AM-2201]	93.4%	306 nM	Potency retained, % of the potency of the parent (hCB1 receptor): over 12%
O=C(O)CCCCn1nc(C(=O)c2cccc3ccccc23)c2ccccc21 [Pentanoic acid THJ-018]	11.7%		
O=C(c1cccc2ccccc12)c1cn(CCCCCO[C@@H]2O[C@H](C(=O)O)[C@@H](O)[C@H](O)[C@H]2O)c2ccccc12 [reference compound]			Activity on hCB1 in words (CB1 receptor): neutral antagonist
O=C(c1cccc2ccccc12)c1c(O)n(CCCCCF)c2ccccc12 [2-OH indole AM-2201]	0.26%		
O=C(c1cccc2ccccc12)c1cn(CCCCCF)c2ccccc12 [AM-2201, [1-(5-fluoropentyl)-1H-indol-3-yl]-1-naphthalenyl-methanone, reference compound]	99.7%	36 nM and 36.4 nM	
O=C(c1cccc2ccccc12)c1cn(CC(O)CCCF)c2ccccc12 (stereo not drawn) [2-OH pentyl AM-2201]	95.1%	375 nM	
O=C(c1cccc2ccccc12)c1cn(CCCCCO)c2ccccc12 [5-OH pentyl JWH-018]	63.1%	178 nM	hCB1 activity in other in vitro studies, in words (CB1 receptor): active metabolites; hCB1 activity class in words (full agonist, partial agonist, inactive) (hCB1 receptor; less than 20% efficacy regarded as inactive): partial agonist
CCCCCn1cc(C(=O)c2cccc3ccccc23)c2c(O)cccc21 [4-OH indole JWH-018]	89.8%	83.6 nM	Activity on the CB1 receptor in words (CB1 receptor): active; Potency retained, % of the potency of the parent (hCB1 receptor): 51%
O=C(c1cccc2ccccc12)c1cn(CCCCCF)c2c(O)cccc12 [7-OH indole AM-2201]	110%	282 nM	Efficacy (% JWH-018 activity), Emax (hCB1 receptor): 109.80 % JWH-018 activity; Potency retained, % of the potency of the parent (hCB1 receptor): over 12%
CCCCCn1cc(C(=O)O)c2ccccc21 [carboxylic acid PB-22, reference compound]			CB1 / hCB1 activity in words (CB1 receptor; in vivo rat model and in vitro): inactive; Activation of the serotonin receptor 5-HT2A in words [1]: activated
O=C(c1cccc2ccccc12)c1cn(CCCC(O)CF)c2ccccc12 (stereo not drawn) [4-OH pentyl AM-2201]	97.1%	63.6 nM	
CCCCCn1cc(C(=O)c2cccc3ccccc23)c2cccc(O)c21 [7-OH indole JWH-018]	< 20%		Activity on the CB1 receptor in words (CB1 receptor): active; Efficacy (% JWH-018 activity), Emax (hCB1 receptor): 15.81 % JWH-018 activity
CCCCCn1cc(C(=O)c2cccc3ccccc23)c2ccccc21 [JWH-018, 1-naphthalenyl(1-pentyl-1H-indol-3-yl)-methanone, reference compound]	102%	42.4 nM	hCB1 activity in other in vitro studies, in words (CB1 receptor): agonist at nanomolar concentrations
CCCCCn1cc(C(=O)c2cccc3ccccc23)c2ccc(O)cc21 [6-OH indole JWH-018]	59%	460 nM	Activity on the CB1 receptor in words (CB1 receptor): active; hCB1 activity in other in vitro studies, in words (CB1 receptor): significantly less Emax than its 5-hydroxy isomer; Efficacy (% JWH-018 activity), Emax (hCB1 receptor): 59.31 % JWH-018 activity; Potency retained, % of the potency of the parent (hCB1 receptor): 4%
CCCC(O)Cn1nc(C(=O)c2cccc3ccccc23)c2ccccc21 (stereo not drawn) [2-OH pentyl THJ-018]	93.6%	1110 nM	
CCC(O)CCn1cc(C(=O)c2cccc3ccccc23)c2ccccc21 (stereo not drawn) [3-OH pentyl JWH-018]	96%	3510 nM	
